In patent US11453667B2, “Pyridone-pyrimidine derivative acting as KRASG12C mutein inhibitor” (MEDSHINE DISCOVERY INC., priority 2018, dated 2022):

Experiments:
[1] = tested on: NCI-H358 human non-small cell lung cancer cells with KRAS G12C mutation; assay: Cell experiment: anti-proliferative activity, CellTiter-Glo, NCI-H358; assay type: cell-based; details: 5 days culture
Description: (§1) This experiment is intended to verify that the compounds of the present invention have an inhibitory effect on the proliferation of NCI-H358 human non-small cell lung cancer cells with KRAS G12C mutation, MIA PaCa2 human pancreatic cancer cells with KRAS G12C mutation and wild-type A375 human malignant melanoma cells.
(§2) 40 μl of phosphate buffer was added to the peripheral wells of three 384-well microplates respectively, and 40 μl of cell suspension to be tested was added to the other wells of each plate respectively (plate 1: NCI-H358 cell suspension containing 500 NCI-H358 cells; plate 2: MIAPaCa2 cell suspension containing 300 MIAPaCa2 cells; plate 3: A375 cell suspension containing 300 A375 cells). The three cell plates were then placed in a carbon dioxide incubator and incubated overnight. Echo was used to perform a 3-fold gradient dilution of the compounds to be tested, and each compound was diluted with 10 concentration gradients (diluted from 50 μM to 0.003 μM), 100 nl of which was respectively added to the corresponding wells of the cell plates; after dosing, 40 μL of phosphate buffer was added to each well of rows A and P and columns 1 and 24, and then the cell plates were put back to the carbon dioxide incubator for culturing for 5 days. 20 μl of Promega CellTiter-Glo reagent per well was added to the cell plates, which was shaken at room temperature for 10 minutes in the dark to stabilize the luminescence signal. A PerkinElmer Envision multi-label analyzer was used for reading.
(§3) Data analysis: IC50 results were analyzed by GraphPad Prism 5.0 software […].

[2] = tested on: wild-type A375 human malignant melanoma cells; assay: Cell experiment: anti-proliferative activity, CellTiter-Glo, A375; assay type: cell-based; details: 5 days culture
Description: as §1, §2, §3

[3] = tested on: MIA PaCa2 human pancreatic cancer cells with KRAS G12C mutation; assay: Cell experiment: anti-proliferative activity, CellTiter-Glo, MIA PaCa2; assay type: cell-based; details: 5 days culture
Description: as §1, §2, §3

[4] = Liver microsome stability test, human; assay type: in vitro ADME; details: human liver microsomes, 0.5 mg protein/mL; read-out: Human T1/2
Description: (§4) To test the metabolic stability of the test article in mice, rats and human liver microsomes.
(§5) 1. 10 μL of the test or control article working solution was added to all plates (T0, T5, T10, T20, T30, T60, NCF60).
(§6) 2. Liver microsome solution was dispensed into a 96-well plate at 680 μL/well, and addition was performed on each plate at 80 μL/well, and the above-mentioned incubation plate was placed at 37° C. for pre-incubation for about 10 minutes.
(§7) 4. After the pre-incubation, the NADPH regeneration system working solution was dispensed into the 96-well plate at 90 μL/well, and addition was performed on each plate at 10 μL/well to start the reaction.
(§8) 5. Incubation was performed for an appropriate time (e.g., 5, 10, 20, 30 and 60 minutes).
(§9) 6. 300 μL of the stopping solution (refrigerated at 4° C., containing 100 ng/mL of tolbutamide and 100 ng/mL of labetalol) was respectively added to each sample well.
(§10) T1/2 and Clint(mic) were calculated by the following formula.
(§11) Ct is the concentration at time t, with t being the incubation time; C0 is the concentration at 0; Ke is the elimination rate constant; Clint(mic) is the intrinsic clearance rate of liver microsomes; and Clint(liver) is the hepatic intrinsic clearance rate. CLint(mic)=0.693/half-life/mg microsomal protein per mL (microsome concentration during incubation) CLint(liver)=CLint(mic)×mg microsomal protein/g liver weight×ratio of liver weight to body weight

[5] = Liver microsome stability test, rat; assay type: in vitro ADME; details: rat liver microsomes, 0.5 mg protein/mL; read-out: rat T1/2
Description: as §4, §5, §6, §7, §8, §9, §10, §11

[6] = Liver microsome stability test, mouse; assay type: in vitro ADME; details: mouse liver microsomes, 0.5 mg protein/mL; read-out: mouse T1/2
Description: as §4, §5, §6, §7, §8, §9, §10, §11

[7] = tested on: human non-small cell lung cancer NCI-H358; assay: In vivo drug efficacy test (2): subcutaneous xenograft tumor model; parameters: species or system BALB/c nude mice; details: 100 mg/kg (0-6 days) + 50 mg/kg (7-20 days)
Description: To evaluate the in vivo efficacy of the test compounds in a subcutaneous xenograft tumor model of human non-small cell lung cancer NCI-H358.
BALB/c nude mice, female, 6-8 weeks old, weighing 18-21 grams. A total of 100 were required. They were provided by Shanghai Lingchang Experimental Animal Co., Ltd ( ? ? ). NCI-H358 tumor cells were resuspended in PBS to prepare 0.1 mL (5×10^6) of cell suspension, which was inoculated subcutaneously on the right back of each mouse (5×10^6/mouse) to wait for tumor growth. When the average tumor volume reached about 150-200 mm^3, randomized grouping and administration were performed, and the administration dose was shown in Table 6. The diameter of the tumor was measured with vernier calipers twice a week. The formula for calculating the tumor volume is: V=0.5a×b^2, wherein a and b represent the long and short diameters of the tumor, respectively. The tumor suppressive effect of the compounds was evaluated by TGI (%). TGI (%) reflects the tumor growth inhibition rate. Calculation of TGI (%): TGI (%)=[(1−(average tumor volume at the end of administration in a treatment group−average tumor volume at the beginning of administration in the treatment group))/(average tumor volume at the end of treatment in the solvent control group−average tumor volume at the beginning of treatment in the solvent control group)]×100%.

[8] = Homo sapiens, MIA PaCa-2, 120 h

Row | IC50 ([2]; Homo sapiens, A-375, 120 h) [µM] | IC50 ([1]; Homo sapiens, NCI-H358, 120 h) [µM] | IC50 [3, 8] [µM] | Structure (SMILES) | other results
1 | – | – | – | C=CC(=O)N1CCN(c2nc(N3CC(N(CC)CC)C3)nc3c(=O)n(-c4c(C)ccc(N)c4C)c(C(F)(F)F)cc23)CC1 [Example 35] | IC50 [3]: 12 µM
2 | 36.2 | 9.93 | – | C=CC(=O)N1CCN(c2ncnc3c(=O)n(-c4c(C)ccc5[nH]ncc45)c(C(F)(F)F)cc23)CC1 [Example 28] | –
3 | 33.3 | 1.64 | 1.25 | C=CC(=O)N1CCN(c2ncnc3c(=O)n(-c4c(N)cccc4F)c(C(F)(F)F)cc23)CC1 [Example 31] | –
4 | – | – | – | C=CC(=O)N1CCN(c2nc(N3CC(N(CC)CC)C3)nc3c(=O)n(-c4c(N)c(Cl)cc(Cl)c4F)c(C(F)(F)F)cc23)CC1 (atropisomer, axis not shown) [Example 45] | IC50 [1]: 0.01 µM; IC50 [2]: 6.24 µM; IC50 [3]: 0.01 µM
5 | – | – | – | C=CC(=O)N1CCN(c2ncnc3c(=O)n(-c4c(N)c(Cl)cc(Cl)c4F)c(C(F)(F)F)cc23)[C@H](C)C1 [Example 52] | IC50 [1]: 0.06 µM; IC50 [2]: 7.39 µM
6 | 32.6 | 13.3 | – | C=CC(=O)N1CCN(c2ncnc3c(=O)n(-c4c(C)ccc(N)c4C)c(C(F)(F)F)cc23)CC1 [Example 26] | –
7 | 12.2 | 0.15 | 0.16 | C=CC(=O)N1CCN(c2nc(N3CC(N(CC)CC)C3)nc3c(=O)n(-c4c(F)ccc(Cl)c4N)c(C(F)(F)F)cc23)CC1 [Example 41] | –
8 | 39.6 | 15.8 | – | C=CC(=O)N1CCN(c2nc(N3CC(N(CC)CC)C3)nc3c(=O)n(-c4c(N)cccc4F)c(C(F)(F)F)cc23)CC1 [Example 33] | –
9 | 39.1 | 1.41 | 2.31 | C=CC(=O)N1CCN(c2nc(N3CC(N(CC)CC)C3)nc3c(=O)n(-c4c(O)cccc4F)c(C(F)(F)F)cc23)CC1 [Formate of example 8] | –
10 | > 50 | 5.49 | 3.9 | C=CC(=O)N1CCN(c2ncnc3c(=O)n(-c4c(O)c(Cl)cc(Cl)c4F)c(C(F)(F)F)cc23)CC1 [Example 50] | –
11 | 8.91 | – | – | C=CC(=O)N1CCN(c2ncnc3c(=O)n(-c4c(N)c(Cl)cc(Cl)c4F)c(C(F)(F)F)cc23)[C@@H](C)C1 (atropisomer, axis not shown) [Example 53] | IC50 [1]: 2.27 µM
12 | – | – | – | C=CC(=O)N1CCN(c2nc(N3CC(N(CC)CC)C3)nc3c(=O)n(-c4c(C)ccc(N)c4C)c(C(F)(F)F)cc23)CC1 [Example 36] | IC50 [3]: 1.11 µM; half-life [4]: > 2.42 h; half-life [5]: > 2.42 h; half-life [6]: > 2.42 h
13 | – | – | – | C=CC(=O)N1CCN(c2ncnc3c(=O)n(-c4c(N)c(Cl)cc(Cl)c4F)c(C(F)(F)F)cc23)[C@@H](C)C1 [Example 54] | IC50 [1]: 0.29 µM; IC50 [2]: 6.66 µM
14 | ≥ 50 | 4.26 | – | C=CC(=O)N1CCN(c2ncnc3c(=O)n(-c4c(O)ccc5ccccc45)c(C(F)(F)F)cc23)CC1 [Trifluoroacetate of example 55] | –
15 | 2.86 | 7.18 | – | C=CC(=O)N1CC2CN(c3ncnc4c(=O)n(-c5c(O)cccc5F)c(C(F)(F)F)cc34)CC21 (centres unmarked) [Example 18] | –
16 | 4.57 | 0.01 | 0.02 | C=CC(=O)N1CCN(c2nc(N3CC(N(CC)CC)C3)nc3c(=O)n(-c4c(N)ccc(Cl)c4F)c(C(F)(F)F)cc23)CC1 [Example 42] | Tumor volume (day 20) [7]: 191 mm^3; TGI ([7]; day 20): 95.51%

Row | IC50 ([2]; Homo sapiens, A-375, 120 h) [µM] | IC50 ([1]; Homo sapiens, NCI-H358, 120 h) [µM] | IC50 [3, 8] [µM] | Structure (SMILES) | other results
17 | 9.02 | – | – | C=CC(=O)N1CCN(c2nc(N3CC(N(CC)CC)C3)nc3c(=O)n(-c4c(N)c(Cl)cc(Cl)c4F)c(C(F)(F)F)cc23)CC1 (atropisomer, axis not shown) [Example 44] | IC50 [1]: 3.67 µM; IC50 [3]: 2.97 µM
18 | 17.8 | 5.3 | – | C=CC(=O)N1CCN(c2ncnc3c(=O)n(-c4c(F)cccc4OC)c(C(F)(F)F)cc23)CC1 [Example 1] | –
19 | – | – | – | C=CC(=O)N1CCN(c2nc(N3CC(N(CC)CC)C3)nc3c(=O)n(-c4c(O)cccc4F)c(C(F)(F)F)cc23)CC1 [Example 9] | half-life [4]: > 2.42 h; half-life [5]: 0.772 h; half-life [6]: > 2.42 h
20 | ≥ 50 | 20.8 | – | C=CC(=O)N1CCN(c2ncnc3c(=O)n(-c4c(C)ccc5c4cnn5C(C)=O)c(C(F)(F)F)cc23)CC1 [Example 27] | –
21 | 42.2 | 24 | – | C=CC(=O)N1CCN(c2nc(OC)nc3c(=O)n(-c4c(O)cccc4F)c(C(F)(F)F)cc23)CC1 [Example 11] | –
22 | 27.9 | 1 | 0.82 | C=CC(=O)N1CCN(c2ncnc3c(=O)n(-c4c(F)ccc(Cl)c4N)c(C(F)(F)F)cc23)CC1 [Example 47] | –
23 | 19.7 | 1.05 | 1.44 | C=CC(=O)N1CCN(c2nc(N3CC(N(CC)CC)C3)nc3c(=O)n(-c4c(C)ccc5[nH]ncc45)c(C(F)(F)F)cc23)CC1 [Example 37] | –
24 | > 50 | 13.9 | – | C=CC(=O)N1CCN(c2nc(Oc3cnn(C)c3)nc3c(=O)n(-c4c(O)cccc4F)c(C(F)(F)F)cc23)CC1 [Example 15] | –
25 | 9.89 | 14.2 | – | C=CC(=O)N1CCN(c2nc(OC3CCN(C)CC3)nc3c(=O)n(-c4c(O)cccc4F)c(C(F)(F)F)cc23)CC1 [Example 12] | –
26 | 20.8 | 0.18 | 0.13 | C=CC(=O)N1CCN(c2ncnc3c(=O)n(-c4c(N)ccc(Cl)c4F)c(C(F)(F)F)cc23)CC1 [Example 48] | –
27 | 8.82 | – | – | C=CC(=O)N1CCN(c2ncnc3c(=O)n(-c4c(N)c(Cl)cc(Cl)c4F)c(C(F)(F)F)cc23)[C@H](C)C1 (atropisomer, axis not shown) [Example 51] | IC50 [1]: 2.04 µM
28 | – | – | 15.3 | C=CC(=O)N1CCN(c2ncnc3c(=O)n(-c4c(C)cccc4O)c(C(F)(F)F)cc23)CC1 [Example 25] | –
29 | 29.3 | 0.45 | 0.37 | C=CC(=O)N1CCN(c2nc(N3CC(N(CC)CC)C3)nc3c(=O)n(-c4c(N)cccc4F)c(C(F)(F)F)cc23)CC1 (single isomer, unassigned) [Example 32] | half-life [4]: > 2.42 h; half-life [5]: > 2.42 h; half-life [6]: > 2.42 h
30 | 39.9 | 14.6 | 12.7 | C=CC(=O)N1CCN(c2nc(N3CCOCC3)nc3c(=O)n(-c4c(O)cccc4F)c(C(F)(F)F)cc23)CC1 [Example 6] | –
31 | > 50 | 1.95 | 1.79 | C=CC(=O)N1CCN(c2nc(N3CC(N(CC)CC)C3)nc3c(=O)n(-c4c(O)c(Cl)cc(Cl)c4F)c(C(F)(F)F)cc23)CC1 [Example 46] | –

Row | Structure (SMILES) | IC50 ([2]; Homo sapiens, A-375, 120 h) [µM] | IC50 ([1]; Homo sapiens, NCI-H358, 120 h) [µM] | IC50 [3, 8] [µM] | other results
32 | C=CC(=O)N1CCN(c2ncnc3c(=O)n(-c4c(F)cccc4OC(=O)N(C)C)c(C(F)(F)F)cc23)CC1 [Example 22] | 24.4 | – | – | IC50 ([1]; Homo sapiens, 120 h): 5.12 µM
